From the METLIN SMRT retention time set (Domingo-Almenara et al. 2019)

Experiment: gradient 5% acetonitrile 3 min, to 50% in 2 min, to 85% in 15 min, held 3 min, 100 µL/min
Details: column: Zorbax Extend-C18 2.1 x 50 mm; eluents: water / acetonitrile, 0.1% formic acid
How it was run: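 Pure standards were analyzed in mixtures of ~100 molecules using HPLC coupled to a quadrupole time-of-flight mass spectrometer, in both positive and negative ionization mode. Separation used a Zorbax Extend-C18 column (2.1 × 50 mm, 1.8 μm) at 100 μL/min, with water and acetonitrile each containing 0.1% formic acid. Dead and dwell volumes were 40 μL and 900 μL, and data were collected over 3 months. Retention time was read from computationally picked adduct peaks, each inspected manually.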

COc1ccc(CCNCc2ccc3c(c2)n(C)c(=O)n3C)cc1OC
RP-LC retention time: 587 s

COc1ccc(NC(=O)Cn2c(=O)n(-c3ccccc3)c(=O)c3c2cc(C)n3C)cc1
RP-LC retention time: 766 s

CC(C)NC(=O)c1ccc(OCC2CCN(C(=O)c3ccc(F)c(F)c3)CC2)cc1
RP-LC retention time: 873 s

COc1ccc(NC(=O)N2CCCC2c2nc(-c3ccc(OC)cc3)no2)cc1 (centres undefined)
RP-LC retention time: 876 s

Cc1csc(C(=O)NCCC(O)C(C)(C)C)c1 (centres undefined)
RP-LC retention time: 718 s

CN(C)c1ccc(CNC(=O)c2ccc3c(c2)NC(=O)C2CCCCN32)cc1 (centres undefined)
RP-LC retention time: 617 s

CCc1ccc(-n2ncc3c(=O)n(Cc4nc(-c5cccc(C)c5)no4)cnc32)cc1
RP-LC retention time: 1210 s

COc1ccc(C)cc1NS(=O)(=O)c1ccc(-c2nnc(C3CCC3)o2)o1
RP-LC retention time: 922 s

CC(C)CCNC(=O)Cn1c(=O)c2cccn2c2ccc(F)cc21
RP-LC retention time: 856 s

O=C(Nc1cnc(N2CCCC2)nc1)c1ccccc1C(F)(F)F
RP-LC retention time: 740 s

O=C(Cn1nc(S(=O)(=O)c2cccc(F)c2)ccc1=O)N1CCN(c2ccccc2F)CC1
RP-LC retention time: 885 s

Cc1nnsc1C(=O)N1CCC(C(=O)NCC(F)(F)F)CC1
RP-LC retention time: 614 s

O=C(NCCc1csc(C2CCCN(C(=O)C3CCCO3)C2)n1)C1CC1 (centres undefined)
RP-LC retention time: 627 s

Cc1sc(NC(=O)C(C)(C)C)nc1-c1ccc2c(c1)NC(=O)CO2
RP-LC retention time: 830 s

COCCn1c(C)cc(O)c(C(c2ccc(OC)cc2)N2CCC(C)CC2)c1=O (centres undefined)
RP-LC retention time: 845 s

COc1cc(NC(=O)NCc2cccs2)ccc1N1CCCCC1=O
RP-LC retention time: 645 s

COc1ncccc1C(=O)NCCCn1nc(-c2ccc(F)cc2)ccc1=O
RP-LC retention time: 734 s

COc1ccc(-c2nc(-c3ccc4c(c3)oc(=O)n4C)no2)cc1
RP-LC retention time: 1020 s

Cc1cc(NS(=O)(=O)c2ccc(Nc3nc(-c4ccc(C(C)C)cc4)cs3)cc2)no1
RP-LC retention time: 1160 s

COc1cccc(NC(=O)C2CCN(Cc3cnn(-c4ccccc4)c3-n3cccc3)CC2)c1
RP-LC retention time: 723 s

O=C(Cc1c(Sc2cccc(F)c2)[nH]c2ccccc12)N1CCN(c2ccccn2)CC1
RP-LC retention time: 699 s

Cc1sc(NC(=O)c2ccncc2)nc1-c1ccc2c(c1)NC(=O)C(C)O2 (centres undefined)
RP-LC retention time: 714 s

CCN(CC)C(=O)c1ccc2c(c1)N(CC(=O)NCc1ccccn1)C(=O)CO2
RP-LC retention time: 594 s

Cc1noc(CNC(=O)C2CCN(S(=O)(=O)c3cccs3)CC2)n1
RP-LC retention time: 646 s

C[C@H]1CC[C@@H]2N(C1)C[C@H]1[C@@H]3C[C@H]4[C@@H](CC(=O)[C@H]5C[C@@H](O)CC[C@@]54C)[C@@H]3CC[C@H]1[C@]2(C)O
RP-LC retention time: 601 s

CCOc1ccc(-c2[nH]ncc2CNS(=O)(=O)Cc2ccc(C)c(C)c2)cc1
RP-LC retention time: 896 s

CCCNC(=O)N1CCCN(C2=NS(=O)(=O)C(c3ccc(CC)cc3)=C2C)CC1
RP-LC retention time: 809 s

COC(=O)c1c(C)[nH]c(C(=O)N2CCC(CC(=O)NCc3ccc(OC(C)C)cc3)CC2)c1C
RP-LC retention time: 812 s

CCOc1ccc(NC(=O)N2CCN(c3nc4ccccc4n3C)CC2)cc1
RP-LC retention time: 649 s

CC1CN=C2C=C(N3CCN(C(=O)Nc4ccc(C(F)(F)F)cc4)CC3)N=CN21 (centres undefined)
RP-LC retention time: 688 s

Cc1ccc(NC(=O)C2CCCN(c3ccc4cc(S(=O)(=O)N5CCCCC5)ccc4n3)C2)cc1 (centres undefined)
RP-LC retention time: 917 s

Cc1cc(C)n(-c2ccc(=O)n(CC(=O)N3CCN(c4ncccn4)CC3)n2)n1
RP-LC retention time: 623 s

COc1ccc(C(C)NC(=O)c2cc(NC(C)=O)cc3nc(C)ccc23)cc1 (centres undefined)
RP-LC retention time: 618 s

COc1ccccc1NC(=O)CC(=O)Nc1ccc2nc3n(c(=O)c2c1)CCCCC3
RP-LC retention time: 742 s

CS(=O)(=O)Nc1cccc(NC(=O)c2coc(NC(=O)c3ccccc3)n2)c1
RP-LC retention time: 656 s

C=CCNS(=O)(=O)c1c(C)[nH]c(=O)[nH]c1=O
RP-LC retention time: 582 s

O=C(NCCc1ccccc1)Nc1cccc(-c2nnc3n2CCCC3)c1
RP-LC retention time: 694 s

CC(=O)NCc1ccc(-c2noc(Cc3ccc(Br)cc3)n2)s1
RP-LC retention time: 890 s

CCCN1C(=O)c2c(C(=O)NCc3ccccc3F)ncn2CC1(C)C(=O)NC1CCCC1 (centres undefined)
RP-LC retention time: 787 s

O=C(CCc1c(-c2ccc(Br)cc2)nc2ccccn12)NCCN1CCCC1
RP-LC retention time: 567 s

O=C(NCc1ccccn1)c1ccc2ncnc(N3CCCCC3)c2c1
RP-LC retention time: 551 s

CCCCOc1ccc(CNC(=O)C2CCCN(c3nccc(C)n3)C2)cc1 (centres undefined)
RP-LC retention time: 930 s

COc1cc(C(=O)Nc2c(-c3ccc(F)cc3)nc3ccccn23)cc(OC)c1OC
RP-LC retention time: 657 s

CCn1c(N2CCC(C(=O)NC3CCCCCC3)CC2)cc(=O)n(C)c1=O
RP-LC retention time: 855 s
